Where “and” joins values, the source holds several entries; their conditions need not be identical. Equal values may be shown once.
Key:
Assay type in all cases: in vivo, human
[1] = Phase 1 cross-over study: pharmacokinetics, biodistribution, dosimetry, excretion
Description: (§1) Pharmacokinetics, Biodistribution, Dosimetry, Metabolism & Excretion of compound represented by Formula (1) and Formula (2). Methods: Fourteen subjects (7 metastatic prostate cancer patients and 7 healthy, normal males) were enrolled in a phase 1, single-blind, randomized, cross-over study in which subjects were randomly administered a single dose (740 MBq; 20 mCi) of a compound represented by Formula (1) and a similar chemical analog, a compound represented by Formula (2), 14 days apart. […] (FIGS. 1 and 2A)

[2] = system: lesions in lymph nodes and bone of men with prostate cancer; assay: Phase 1 cross-over study: whole-body and SPECT/CT lesion imaging; conditions: for detection of metastatic lesions compared with bone scan: patient with prior prostatectomy and rising PSA, FIG. 2C
Description: as §1

[3] = system: prostate cancer lesions (PSMA expressing); assay: Phase 1 study before radical prostatectomy: SPECT uptake in prostate lesions vs Gleason score; set-up: Clinical Reading: scale not given here; conditions: for tumor/background ratio: 20 mCi, SPECT 2-4 hours p.i.
Experimental: Patients (n=8) diagnosed with localized PCa (Gleason ≧7 with ≧3 biopsy cores positive, and at least one core ≧30% involved with PCa) and who were scheduled for radical prostatectomy (RP) participated in this Phase 1 study. Within two weeks of surgery, each subject received a single dose of a compound represented by Formula (1), (20 mCi), and was then subjected to a planar whole body and Single Photon Emission Computed Tomography (SPECT) images between 2-4 hours post injection (p.i.). The uptake of the Tc-99m in prostate lesions was quantified, and the imaging results were compared to CT/MRI, histopathology and PSMA staining.

[4] = system: lesions in lymph nodes and bone; assay: Phase 2 study: whole-body planar and SPECT/CT imaging compared with bone scan; conditions: post-injection, men with prostate cancer
Experimental: The methodology of Example 4 was used. Whole-body planar scintigraphic images using ^99mTc-MIP-1404 were evaluated by 3 readers blinded to clinical information to determine if disease was present beyond the pelvic region. The ^99mTc-MIP-1404 whole-body images were compared to the bone scan images.

[5] = Formula (1) compared with Formula (2)
[6] = individual subjects (n=8), Gleason score 7 or 9, listed as 99mTc-MIP-1404

(OC-6-33)-tricarbonyl[N^2-{[(1S)-1,3-dicarboxypropyl]amino]carbamoyl}-L-γ-glutamyl-N^6,N^6-bis[(1-{2-[bis(carboxymethyl)amino]-2-oxoethyl]-1H-imidazol-2-yl-κN^3]methyl]-L-lysine-κN^6](^99mTc)(+)chloride [Formula (1)]
gamma radiation signal in scintigraphic images ([1]; 24 hour time point, liver, kidney, urinary bladder, prostate, lacrimal and salivary glands): near complete loss of gamma radiation signal
period over which compound is cleared from blood ([1]; FIG. 1A): about 1500 minutes
uptake in liver and kidney tissue [1, 5]: greater
percent intensity of signal detected as a function of drug administered ([1]; Formula (1) compared with Formula (2), every time point): greater
accumulation in the urinary bladder ([1]; in vivo): minimal accumulation
tissues of accumulation ([1]; in vivo pharmacokinetic and biodistribution studies): liver, kidneys and salivary glands as well as the urinary bladder and prostate tissue
estimated radiation dose (dosimetry) ([1]; single dose 740 MBq (20 mCi)): within the clinically acceptable range
detection of metastatic lesions compared with bone scan [2]: identified multiple foci of metastatic cancer not seen in the bone scan
detection of metastatic lesions compared with bone scan ([2]; listed as Formula 1): detected more metastatic lesions earlier
earliest time lesions in lymph nodes and bone visualized by whole-body imaging ([2]; post-injection, men with prostate cancer): 1 h
correlation between 99mTc uptake levels and the Gleason score [3, 5]: stronger
tumor/background ratio ([3]; Gleason score of 7): 10.8±2.2
tumor/background ratio ([3]; Gleason score of 9): 30±10
identification of PCa foci confirmed by histopathology and PSMA staining ([3]; all subjects with Gleason score ≧7): clearly identified the PCa foci
Clinical Reading [3, 6]: 0 and 1 (3×) and 3 (2×) and 4 (2×)
T/B Ratio [3, 6]: 13 and 14 and 10.5 and 10 and 6.5 and 15.5 and 33 and 45
earliest time lesions in lymph nodes and bone visualized by whole-body imaging [4]: 1 h
